Test results: ChEMBL document CHEMBL4334438, “Discovery of novel glycogen synthase kinase-3α inhibitors: Structure-based virtual screening, preliminary SAR and biological evaluation for treatment of acute myeloid leukemia” (Eur J Med Chem, 2019)
pIC50: −log10 of the molar value. Calls of active or inactive are those of the source. No cut-off for these calls is given here.

Legend:
NB-4 [1] = experiment: Induction of granulocytic differentiation in human NB4 cells assessed as increase in CD11b-APC-Cy7 positive cells at 10 to 30 uM after 6 days by flow cytometry analysis; type: functional, cell-based
HL-60 [2] = experiment: Antiproliferative activity against human HL60 cells assessed as reduction in viability at 1 to 30 uM after 3 days by SRB assay; type: functional, cell-based
HL-60 [3] = experiment: Induction of granulocytic differentiation in human HL60 cells assessed as increase in CD14-FITC positive cells at 10 to 30 uM after 6 days by flow cytometry analysis; type: functional, cell-based
NB-4 [4] = experiment: Antiproliferative activity against human NB4 cells assessed as reduction in viability at 1 to 30 uM after 3 days by SRB assay; type: functional, cell-based
HL-60 [5] = experiment: Inhibition of colony formation in human HL60 cells at 30 uM preincubated for 72 hrs followed by compound washout and measured after 7 to 10 days; type: functional, cell-based
HL-60 [6] = experiment: Induction of granulocytic differentiation in human HL60 granulocytic assessed as increase in CD11c-APC positive cells at 10 to 30 uM after 6 days by flow cytometry analysis; type: functional, cell-based
NB-4 [7] = experiment: Inhibition of colony formation in human NB4 cells at 30 uM preincubated for 72 hrs followed by compound washout and measured after 7 to 10 days; type: functional, cell-based
NB-4 [8] = experiment: Induction of granulocytic differentiation in human NB4 cells assessed as increase in CD14 positive cells at 10 to 30 uM after 6 days by FITC staining based flow cytometry analysis; type: functional, cell-based
NB-4 [9] = experiment: Induction of granulocytic differentiation in human NB4 cells assessed as increase in CD11c-APC positive cells at 10 to 30 uM after 6 days by flow cytometry analysis; type: functional, cell-based
HL-60 [10] = experiment: Induction of granulocytic differentiation in human HL60 cells assessed as increase in CD11b-APC-Cy7 positive cells at 10 to 30 uM after 6 days by flow cytometry analysis; type: functional, cell-based
[11] = biological target: T1, Glycogen synthase kinase-3 alpha (Homo sapiens, UniProt P49840); experiment: Inhibition of human GSK-3alpha S449A mutant (2 to end residues) using phospho GS2 peptide as substrate after 40 mins in presence of [gamma-33ATP] by scintillation counting method
[12] = biological target: Glycogen synthase kinase-3 beta (Homo sapiens, UniProt P49841, H350L); experiment: Inhibition of human GSK-3beta H350L mutant (2 to end residues) at 10 uM using phospho GS2 peptide as substrate after 40 mins by [gamma-33ATP] radiometric assay
[13] = tested on: Glycogen synthase kinase-3 alpha (Homo sapiens), P49840 [UNDEFINED MUTATION]; experiment: Inhibition of human GSK-3alpha S449A mutant (2 to end residues) at 10 uM using phospho GS2 peptide as substrate after 40 mins in presence of [gamma-33ATP] by scintillation counting method relative to control
GSK-3beta (H350L mutant) = GSK-3beta (H350L mutant) (Homo sapiens, UniProt P49841, H350L); experiment: Inhibition of human GSK-3beta H350L mutant (2 to end residues) at 10 uM using phospho GS2 peptide as substrate after 40 mins by [gamma-33ATP] radiometric assay relative to control; settings: human GSK-3beta H350L mutant enzyme (residues 2 to end), probe phospho GS2 peptide
HL-60 [14] = experiment: Induction of monocytic differentiation in human HL60 monocytic assessed as increase in CD11c-APC positive cells at 30 uM after 6 days by flow cytometry analysis; type: functional, cell-based
HL-60 [15] = experiment: Induction of monocytic differentiation in human HL60 cells assessed as increase in CD14-FITC positive cells at 30 uM after 6 days by flow cytometry analysis; type: functional, cell-based
NB-4 [16] = experiment: Induction of monocytic differentiation in human NB4 cells assessed as increase in CD11b-APC-Cy7 positive cells at 30 uM after 6 days by flow cytometry analysis; type: functional, cell-based
NB-4 [17] = experiment: Induction of monocytic differentiation in human NB4 cells assessed as increase in CD11c-APC positive cells at 30 uM after 6 days by flow cytometry analysis; type: functional, cell-based
[18] = Activation of wnt/beta-catenin signalling pathway in human NB4 cells assessed as stabilization of beta-catenin at 30 uM after 24 hrs by Western blot analysis; type: cell-based
[19] = biological target: T1, Glycogen synthase kinase-3 alpha; experiment: Inhibition of human GSK-3alpha using YRRAAVPPSPSLSRHSSPHQ(pS)EDEEE as substrate measured in presence of [gamma-33P]ATP by radiometric assay
[20] = Activation of wnt/beta-catenin signalling pathway in human HL60 cells assessed as stabilization of beta-catenin at 30 uM after 24 hrs by Western blot analysis; type: cell-based
NB-4 [21] = experiment: Induction of monocytic differentiation in human NB4 cells assessed as increase in CD14 positive cells at 30 uM after 6 days by FITC staining based flow cytometry analysis; type: functional, cell-based
HL-60 [22] = experiment: Induction of monocytic differentiation in human HL60 cells assessed as increase in CD11b-APC-Cy7 positive cells at 30 uM after 6 days by flow cytometry analysis; type: functional, cell-based
[23] = biological target: T2, Glycogen synthase kinase-3 beta (Homo sapiens, UniProt P49841); experiment: Inhibition of human GSK-3beta using YRRAAVPPSPSLSRHSSPHQ(pS)EDEEE as substrate measured in presence of [gamma-33P]ATP by radiometric assay
[24] = biological target: T2, Glycogen synthase kinase-3 beta; experiment: Inhibition of human GSK-3beta by mobility shift micro-fluidic assay
Homo sapiens = species: Homo sapiens; experiment: Selectivity index, ratio of IC50 for inhibition of human GSK-3beta H350L mutant (2 to end residues) to IC50 for inhibition of human GSK-3alpha S449A mutant (2 to end residues)

GSK-3beta (H350L mutant), sequence (P49841 whole entry, looked up, stated change not applied, the tested form may be a part): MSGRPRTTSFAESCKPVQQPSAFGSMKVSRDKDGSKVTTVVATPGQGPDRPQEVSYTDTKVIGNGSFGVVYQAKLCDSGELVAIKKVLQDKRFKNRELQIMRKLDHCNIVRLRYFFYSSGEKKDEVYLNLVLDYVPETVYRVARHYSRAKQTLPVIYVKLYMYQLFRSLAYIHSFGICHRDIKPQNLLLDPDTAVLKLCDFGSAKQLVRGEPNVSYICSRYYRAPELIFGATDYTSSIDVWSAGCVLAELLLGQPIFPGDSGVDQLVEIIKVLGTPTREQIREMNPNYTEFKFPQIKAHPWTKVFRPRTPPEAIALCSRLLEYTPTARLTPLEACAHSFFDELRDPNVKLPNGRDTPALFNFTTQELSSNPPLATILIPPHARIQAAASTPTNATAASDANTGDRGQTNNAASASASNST
Glycogen synthase kinase-3 beta (Homo sapiens, UniProt P49841, H350L), sequence (P49841 whole entry, looked up, stated change not applied): as the sequence (P49841 whole entry, looked up, stated change not applied, the tested form may be a part) above
T1 sequence (P49840 whole entry): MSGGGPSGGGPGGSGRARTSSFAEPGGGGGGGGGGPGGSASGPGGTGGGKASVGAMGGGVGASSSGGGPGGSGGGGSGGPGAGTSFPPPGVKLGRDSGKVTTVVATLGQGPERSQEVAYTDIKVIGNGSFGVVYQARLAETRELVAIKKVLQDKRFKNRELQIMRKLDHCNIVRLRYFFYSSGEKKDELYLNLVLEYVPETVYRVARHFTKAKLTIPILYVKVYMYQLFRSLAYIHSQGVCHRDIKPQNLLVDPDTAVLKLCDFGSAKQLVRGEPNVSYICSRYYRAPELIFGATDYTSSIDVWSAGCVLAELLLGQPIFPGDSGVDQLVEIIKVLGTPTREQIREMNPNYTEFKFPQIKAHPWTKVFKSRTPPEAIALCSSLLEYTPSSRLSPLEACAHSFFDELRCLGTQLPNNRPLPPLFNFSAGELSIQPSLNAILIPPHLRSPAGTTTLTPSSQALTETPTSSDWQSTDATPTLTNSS
Glycogen synthase kinase-3 alpha (Homo sapiens), P49840 [UNDEFINED MUTATION], sequence (P49840 whole entry, looked up, stated change not applied, the tested form may be a part): as the sequence (P49840 whole entry) above
T2 sequence (P49841 whole entry): as the sequence (P49841 whole entry, looked up, stated change not applied, the tested form may be a part) above

| Compound | pIC50 [11] | pIC50 [12] | inhibition [13] [%] | inhibition at 40 min, 10 µM (GSK-3beta (H350L mutant)) [%] | further results |
| --- | --- | --- | --- | --- | --- |
| CC1=C(/C=C/C(C)=C/C=C/C(C)=C/C(=O)O)C(C)(C)CCC1 |  |  |  |  | Activity (NB-4 [1]): Active; Activity (HL-60 [2]): Active; Activity (HL-60 [3]): Active; Activity (NB-4 [4]): Active; inhibition (HL-60 [5]): Active; Activity (HL-60 [6]): Active; inhibition (NB-4 [7]): Active; Activity (NB-4 [8]): Active; Activity (NB-4 [9]): Active; Activity (HL-60 [10]): Active |
| N=C1NC(=O)/C(=C\c2ccc(-c3cccc(Cl)c3)o2)S1 | 6.55 | 6.12 | 94 | 88 |  |
| c1ccc(-c2noc(CSc3nnc(-c4ccncc4)o3)n2)cc1 |  |  |  |  | Activity (HL-60 [2]): Active; Activity (HL-60 [14]): Active; Activity (HL-60 [15]): Active; Activity (NB-4 [16]): Active; Activity (NB-4 [17]): Active; Activity [18]: Active; Activity (NB-4 [4]): Active; pIC50 [19]: 6.35; Activity [20]: Active; Activity (NB-4 [21]): Active; Activity (HL-60 [22]): Active; pIC50 [23]: 6.28 |
| NC1=NC(=O)/C(=C\c2ccc(-c3ccccc3[N+](=O)[O-])o2)S1 | 5.55 | 5.60 | 91 | 82 |  |
| CCCCOC(=O)c1cc(-c2ccc(/C=C3/NC(=S)NC3=O)o2)ccc1Cl | 6.15 | 5.92 | 65 | 55 |  |
| CC[C@@]1(c2ccccc2)C2=C(CC(C)(C)CC2=O)Nc2n[nH]cc21 |  |  |  |  | pIC50 [24]: 6.29 |
| Cc1c(-c2ccc(/C=C3/SC(=N)NC3=O)o2)ccc([N+](=O)[O-])c1C | 6.64 | 6.24 | 64 | 66 |  |
| N=C1NC(=O)/C(=C\c2ccc(-c3ccc(Cl)cc3Cl)o2)S1 | 5.73 | 5.92 | 82 | 93 |  |
| O=C1NC(=S)N/C1=C/c1ccc(-c2cccc(C(=O)O)c2)o1 | 6.84 | 6.47 | 97 | 96 |  |
| Cc1ccc(-c2ccc(/C=C3/NC(=S)NC3=O)o2)c(Br)c1 | 6.36 | 6.06 | 65 to 90 | 62 | Ratio IC50 (Homo sapiens): 1.95 |
| N=C1NC(=O)/C(=C\c2ccc(-c3ccccc3Cl)o2)S1 | 6.62 | 6.25 | 95 | 95 |  |
| O=C1NC(=O)C(c2cnc3ccccn23)=C1c1cn2c3c(cc(F)cc13)CN(C(=O)N1CCCCC1)CC2 [LY-2090314] | 8.99 | 8.89 | 99 | 97 |  |
| O=C1NC(=S)N/C1=C/c1ccc(-c2ccc(C(=O)O)cc2)o1 | 6.51 | 6.13 | 97 | 91 |  |
| O=C1NC(=S)N/C1=C/c1ccc(-c2ccccc2Cl)o1 | 6.22 | 6.04 | 84 | 86 |  |
| N=C1NC(=O)/C(=C\c2ccc(-c3cc([N+](=O)[O-])ccc3Cl)o2)S1 | 5.57 | 5.75 | 71 | 65 |  |
| Cc1ccc(-c2ccc(/C=C3/SC(=N)NC3=O)o2)c([N+](=O)[O-])c1 | 6.79 | 6.49 | 85 | 89 |  |
| N=C1NC(=O)/C(=C\c2ccc(-c3cccc(C(=O)O)c3)o2)S1 | 6.68 | 6.51 | 97 | 93 |  |
| O=C1NC(=S)N/C1=C/c1ccc(-c2ccc([N+](=O)[O-])cc2)o1 | 6.39 | 6.23 | 88 | 72 |  |
| Cc1ccc(-c2ccc(/C=C3/NC(=S)NC3=O)o2)cc1Cl | 6.04 | 5.89 | 76 | 72 |  |
| N=C1NC(=O)/C(=C\c2ccc(-c3ccc(Cl)c(Cl)c3)o2)S1 | 6.52 | 6.24 | 80 to 81 | 75 | Ratio IC50 (Homo sapiens): 1.9 |
| CC(=O)/N=C1/NC(=O)/C(=C\c2ccc(-c3ccc(C(=O)O)cc3)o2)S1 | 6.25 | 5.43 | 86 | 72 |  |
